According to US20100222302A1, “Novel Antibacterial Compounds” (priority 2005, published 2010):
Values after ≈ are worked out from the molar mass of the structure shown.

Columns and labels:
Assay in all cases: MIC by broth microdilution (NCCLS M7-A4)
Assay type in all cases: cell-based
S. aureus A798 = settings: Staphylococcus aureus, cation-adjusted Mueller-Hinton Broth, pH 7.2-7.3
Protocol: (§1) These assays have been performed following the description given in “Methods for dilution Antimicrobial Susceptibility Tests for Bacteria that Grow Aerobically, 4th ed.; Approved standard: NCCLS Document M7-A4; National Committee for Clinical Laboratory Standards Villanova, Pa., USA, 1997”. Minimal inhibitory concentrations (MICs; mg/l) were determined in cation-adjusted Mueller-Hinton Broth (BBL) by a microdilution method following NCCLS guidelines (National Committee for Clinical Laboratory Standards. Methods for Dilution Antimicrobial Susceptibility). The pH of the test medium was 7.2-7.3. All the above Examples were tested against several Gram positive and Gram negative bacteria.

M catarrhalis A894 = settings: cation-adjusted Mueller-Hinton Broth, pH 7.2-7.3
Protocol: as §1

S Pneunoniae 49619 = settings: cation-adjusted Mueller-Hinton Broth, pH 7.2-7.3
Protocol: as §1

Row | SMILES | MIC (S. aureus A798) [µg/mL] | MIC (M catarrhalis A894) [µg/mL] | MIC (S Pneunoniae 49619) [µg/mL]
1 | O=C(O)c1cn(C2CC2)c2c3c(c(F)cc2c1=O)N1C[C@](O)(COc2ccc(N4C[C@H](Cn5ccnn5)OC4=O)cc2F)C[C@H]1CO3 [Example 1, (13S,16S)-1-cyclopropyl-7-fluoro-16-[2-fluoro-4-((5R)-2-oxo-5-[1,2,3]triazol-1-ylmethyl-oxazolidin-3-yl)-phenoxymethyl]-16-hydroxy-4-oxo-1,4,13,15,16,17-hexahydro-12H-11-oxa-1,14-diaza-cyclopenta[a]phenanthrene-3-carboxylic acid] | ≤ 0.063 | ≤ 0.063 | ≤ 0.063
2 | CC(=O)NC[C@H]1CN(c2ccc(OC[C@]3(O)C[C@H]4COc5c(c(F)cc6c(=O)c(C(=O)O)cn(C7CC7)c56)N4C3)c(F)c2)C(=O)O1 [Example 2, (13S,16S)-16-{4-[(5S)-5-(acetylamino-methyl)-2-oxo-oxazolidin-3-yl]-2-fluoro-phenoxymethyl}-1-cyclopropyl-7-fluoro-16-hydroxy-4-oxo-1,4,13,15,16,17-hexahydro-12H-11-oxa-1,14-diaza-cyclopenta[a]phenanthrene-3-carboxylic acid] | ≤ 0.063 | ≤ 0.063 | ≤ 0.063
3 | O=C(O)c1cn(C2CC2)c2c3c(c(F)cc2c1=O)N1C[C@](O)(COc2ccc(N4C[C@H](Cn5ccnn5)OC4=O)cc2F)C[C@@H]1CO3 [Example 4, (13R,16S)-1-cyclopropyl-7-fluoro-16-[2-fluoro-4-((5R)-2-oxo-5-[1,2,3]triazol-1-ylmethyl-oxazolidin-3-yl)-phenoxymethyl]-16-hydroxy-4-oxo-1,4,13,15,16,17-hexahydro-12H-11-oxa-1,14-diaza-cyclopenta[a]phenanthrene-3-carboxylic acid] | ≤ 0.063 | 0.25 (≈ 0.384 µM) | ≤ 0.063
